Experimental data reported in US10232021B2, “Calcitonin mimetics for treating diseases and disorders” (KEYBIOSCIENCE AG, priority 2013, dated 2019).
Bridges are numbered along the chain shown (N, C = ends).

How the values were obtained:
[1] = target: T1, Calcitonin Receptor (CTR) (Homo sapiens, UniProt P30988); test: PathHunter β-arrestin assay on the calcitonin receptor, incl. prolonged activation; type: cell-based; details: U20S-CALCR cells; 4, 8, 24, 48, 72 h; 0.001-100 nM
T1 construct: host or cells: U2OS
T1 sequence (P30988 25-474): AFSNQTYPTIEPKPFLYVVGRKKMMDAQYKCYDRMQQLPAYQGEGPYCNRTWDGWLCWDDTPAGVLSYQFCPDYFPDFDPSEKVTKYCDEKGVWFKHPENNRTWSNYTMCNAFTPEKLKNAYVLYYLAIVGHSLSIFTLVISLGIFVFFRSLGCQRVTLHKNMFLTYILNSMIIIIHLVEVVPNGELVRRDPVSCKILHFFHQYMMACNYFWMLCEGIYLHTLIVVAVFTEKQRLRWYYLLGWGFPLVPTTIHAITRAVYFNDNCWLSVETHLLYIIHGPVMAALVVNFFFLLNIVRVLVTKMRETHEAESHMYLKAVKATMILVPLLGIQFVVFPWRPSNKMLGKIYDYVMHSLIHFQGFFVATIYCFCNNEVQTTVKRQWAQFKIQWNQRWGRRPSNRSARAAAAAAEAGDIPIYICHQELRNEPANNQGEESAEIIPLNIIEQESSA
Experimental: The following cell lines expressing the calcitonin, amylin and CGRP receptors were purchased and cultured according to the manufacturer's instructions. • 1. Calcitonin Receptor (CTR): U20S-CALCR from DiscoveRx (Cat. No.: 93-0566C3). • 2. Amylin Receptor (AMY-R): CHO-K1 CALCR+RAMP3 from DiscoveRx (Cat. No.: 93-0268C2). • 3. CGRP Receptor (CGRP-R): CHO-K1 CALCRL+RAMP1 from DiscoveRx (Cat. No.: 93-0269C2).
In independent bioassays, CTR, AMY-R and CGRP-R cells were treated with for the indicated timepoints with increasing doses of sCT, UGP-302/KBP-042 or the KBPs identified in Table 3 (0, 0.001, 0.01, 0.1, 1, 10, and 100 nM). […]
In this system, the GPCR is fused in frame with the small enzyme fragment ProLink™ and co-expressed in cells stably expressing a fusion protein of β-Arrestin and the larger, N-terminal deletion mutant of β-gal (called enzyme acceptor or EA). […] This interaction leads to an increase in enzyme activity that can be measured using chemiluminescent PathHunter® Detection Reagents.
The assay was performed in white 384 well plates (Greiner Bio-One, 784080). […] To quantify the GPCR-mediated β-arrestin recruitment the Pathhunter™ Detection Kit (93-0001, DiscoverX) was used and assay performed accordingly to the manufacturer's instructions. […]

[2] = Acute single-dose test on food intake, bodyweight and post-prandial glucose in high fat diet obese rats; type: in vivo, Male Sprague-Dawley rats
Experimental: To ensure the in vivo activity of this class of peptides, an acute test of the ability of KBP-056 to reduce food intake, bodyweight and post-prandial glucose compared to UGP302/KBP-042 was conducted. Male Sprague-Dawley rats were fed high fat diet for 8 weeks to induce obesity, and were then exposed to a single subcutaneous dose of 5 μg/kg KBP-056, UGP302/KBP-042 or vehicle (saline) (5 rats per group), and the effect on food intake, bodyweight and blood glucose was assessed. Blood was collected from the tail vein after 18 hours of dosing. Whole blood glucose levels were determined with an ACCU-CHEK® Avia blood glucose meter (Roche Diagnostics, Rotkreuz, Switzerland).

[3] = Bone resorption (CTX-I) and cartilage degradation (CTX-II) in rats on HFD; type: in vivo; details: male rats on HFD
Excerpt: This confirmed that the KBPs maintain their beneficial effects on bone and cartilage despite the amino-acid changes.

[4] = Three-week treatment of ZDF rats: fasting plasma glucose and HbA1c; type: in vivo, male ZDF (fa/fa) rats; details: 5 μg/kg/day subcutaneously once daily, 3 weeks
Experimental: To assess the effects of the peptides in relation to regulation of blood glucose levels, male ZDF rats, which are the gold standard model of Type 2 Diabetes were treated for 3 weeks with the 3 most promising KBPs (023, 056 and 088) and an active comparator (UGP302/KBP-042). Male ZDF (fa/fa) rats were obtained at the age of 7 weeks from Charles River Laboratories (Kisslegg, Deutschland). All animals were housed at the animal facility at Nordic Bioscience with a constant temperature (21-23° C.) and relative humidity (55-65%) on a 12 h light/dark cycle with free access to Purina 5008 rat chow (Brogaarden, Lynge, Denmark) and tap water. At the age of 8 weeks, the animals were randomized into five groups of 8 rats each based upon fasting blood glucose and body weight (Vehicle (saline), UGP302/KBP-042 5 μg/kg/day, KBP-023 5 μg/kg/day, KBP-056 5 μg/kg/day and KBP-088 5 μg/kg/day) and dosing was done subcutaneously once daily. The animals were treated for a total of 3 weeks to assess the effect of the peptides on fasting blood glucose. Blood glucose was monitored using the Accu-Check® Avia monitoring system (Roche Diagnostics, Rotkreuz, Switzerland) and HbA1c levels by the DCA Vantage™ Analyzer (Siemens Healthcare Diagnostics, Deerfield, Ill.).

[5] = Eight-week treatment of obese rats: food intake and bodyweight; type: in vivo; details: 2.5 μg/kg/day subcutaneous
Experimental: To further investigate the potency of KBP-089 against KBP-042 obese rats were dosed with 2.5 μg/kg/day given as subcutaneous injection of either KBP-089 or KBP-042 and then two control groups, a vehicle and a calorie restriction group, in which the food intake was matched to the food intake of the KBP-089 group to shed light on whether effects independent of food intake could be observed.
In FIGS. 11A-11B; the effect of the peptides on food intake (FIG. 11A) and bodyweight (FIG. […]) during the eight week treatment period is shown in the upper and lower panels respectively. […] Additionally, when comparing KBP-089 to the calorie restricted control group (pair-fed), which has received exactly the same amount of food as the KBP-089 group over the study period, it is clear that the weight reduction is not only mediated by a restriction of food intake, but also by other effects.

[6] = Single-dose food intake in obese High-Fat-Diet rats; type: in vivo; details: single subcutaneous dose 1.25, 2.5, 5 μg/kg; obese rats fasted overnight
Experimental: Rats were fed a High-Fat-Diet for 14 weeks prior to the experiment to induce obesity.
Further similar studies were undertaken over different time periods and with different peptides and the results are seen in FIG. 10 and FIGS. 11A-11B. The ability of KBP089 to suppress food intake over 72 hours was compared to that of KBP042 as control and the results are seen in FIG. 10.

In the case of “KBP-056: SEQ ID NO: 11; AcCASLSTCVLGKLSQDLHKLQTFPRTDVGANAP-NH2 as printed in Table 3, Cys1-Cys7 disulphide bridge”, the “activation of the CTR (β-arrestin)” value [1] is reported as “superior ability to activate and maintain activation of the CTR”, the food intake ([2]; single subcutaneous dose 5 μg/kg, 18-hour period, obese HFD rats) is reported as “strongly reduced food intake” and the post-prandial glucose ([2]; single subcutaneous dose 5 μg/kg, blood after 18 hours, obese HFD rats) is reported as “prominent reduction in post-prandial glucose levels”. The bodyweight ([2]; single subcutaneous dose 5 μg/kg, obese HFD rats) was “significant weight loss”, the “bone resorption (CTX-I)” value [3] was “dose and time-dependently reduced” and the “cartilage degradation (CTX-II)” value [3] was “dose and time-dependently reduced”. The “maximum inhibition of CTX-I and CTX-II” value [3] was “reached three hours after dosing and at doses exceeding 1 μg/kg/day”, the HbA1c [4] was “highly active” and the “fasting plasma glucose (FPG)” value [4] was “highly active”.
With “KBP-042: Peptide UGP302 of WO2013/067357, SEQ ID NO: 4; AcCSNLSTCVLGKLSQELHKLQTYPRTDVGANAP-NH2 (Ac-CSNLSTCVLGKLSQELHKLQTYPRTDVGANAP-NH2; ends and bridges not checked) [reference compound]” the “RANK (48 h)” value ([2]; rank symbol + or 0 at 48 h, legend not given) was 0, the “bodyweight during eight week treatment” value [5] was “substantial weight loss” and the “food intake during eight week treatment” value [5] was “reduce food intake dramatically in the beginning”.
For “KBP-089: SEQ ID NO: 44; AcCSNLSTCMLGRLSQDLHRLQTYPKTDVGANAP-NH2, Cys1-Cys7 disulphide bridge (Ac-CSNLSTCMLGRLSQDLHRLQTYPKTDVGANAP-NH2; disulfide 1-7; SMILES CSCC[C@H](NC(=O)[C@@H]1CSSC[C@H](NC(C)=O)C(=O)N[C@@H](CO)C(=O)N[C@@H](CC(N)=O)C(=O)N[C@@H](CC(C)C)C(=O)N[C@@H](CO)C(=O)N[C@@H]([C@@H](C)O)C(=O)N1)C(=O)N[C@@H](CC(C)C)C(=O)NCC(=O)N[C@@H](CCCNC(=N)N)C(=O)N[C@@H](CC(C)C)C(=O)N[C@@H](CO)C(=O)N[C@@H](CCC(N)=O)C(=O)N[C@@H](CC(=O)O)C(=O)N[C@@H](CC(C)C)C(=O)N[C@@H](Cc1c[nH]cn1)C(=O)N[C@@H](CCCNC(=N)N)C(=O)N[C@@H](CC(C)C)C(=O)N[C@@H](CCC(N)=O)C(=O)N[C@H](C(=O)N[C@@H](Cc1ccc(O)cc1)C(=O)N1CCC[C@H]1C(=O)N[C@@H](CCCCN)C(=O)N[C@H](C(=O)N[C@@H](CC(=O)O)C(=O)N[C@H](C(=O)NCC(=O)N[C@@H](C)C(=O)N[C@@H](CC(N)=O)C(=O)N[C@@H](C)C(=O)N1CCC[C@H]1C(N)=O)C(C)C)[C@@H](C)O)[C@@H](C)O)”, the “food intake, 0-4 hours” value [6] was “led to a reduction in food intake”, the “food intake, 4-24 hours” value [6] was “the effect was maintained to 24 hours” and the “food intake, 24-48 hours” value [6] was “led to a reduction in food intake”. The “bodyweight during eight week treatment” value [5] was “greater than that introduced by KBP-042” and the “food intake during eight week treatment” value [5] was “reduce food intake dramatically in the beginning”.
